Data reported in patent US7572798B2, “Combi-molecules having signal transduction inhibitory properties and DNA damaging properties” (McGill University, priority 2001, dated 2009).
Entries after “also recorded” stand apart in the source; their conditions may differ. Read-outs that look alike come from different tables or passages of the source.

Key:
[1] = target: T1, cytoplasmic domain of the insulin receptor β subunit (Homo sapiens, UniProt P06213); experiment: insulin receptor kinase ELISA; type: biochemical; conditions: 1-100 μM range
T1 construct: Baculovirus-expressed cytoplasmic domain of the insulin receptor β subunit; purchased Biomol Research laboratories Inc., USA; host or cells: Baculovirus expression
T1 sequence (P06213 980-1382 limits assumed): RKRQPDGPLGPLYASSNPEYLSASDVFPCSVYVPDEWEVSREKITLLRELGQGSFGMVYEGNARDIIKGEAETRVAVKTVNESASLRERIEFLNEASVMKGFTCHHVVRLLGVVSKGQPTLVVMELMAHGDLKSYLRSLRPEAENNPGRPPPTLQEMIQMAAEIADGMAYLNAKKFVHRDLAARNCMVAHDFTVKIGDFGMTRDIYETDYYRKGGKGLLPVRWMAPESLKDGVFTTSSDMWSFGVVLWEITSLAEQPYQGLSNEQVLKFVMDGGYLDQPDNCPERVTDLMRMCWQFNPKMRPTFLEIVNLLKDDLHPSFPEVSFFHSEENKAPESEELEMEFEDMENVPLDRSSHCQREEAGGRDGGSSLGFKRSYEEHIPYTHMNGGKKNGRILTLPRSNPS
Method: (§1) Conditions for the c-src and insulin kinase assays were similar to those of the EGFR kinase assay, with the exception of the addition of 1 mM manganese chloride to the assay buffer, and a final ATP concentration of 100 μM. The reaction was terminated by the addition of 50 μl of a 250 mM solution of EDTA prior to aspiration.

A431 cells = experiment: SRB growth inhibition assay in A431 cells; type: cell-based, human; conditions: for IC50: Homo sapiens
Method: All growth inhibitory activities were evaluated using the SRB assay (33). Briefly, following drug treatment, cells were fixed using 50 μL of cold trichloroacetic acid (50%) for 60 min at 4° C., washed five times with tap water, and stained for 30 min at room temperature with SRB (0.4%) dissolved in acetic acid (0.5%). The plates were rinsed five times with 1% acetic acid and allowed to air dry. The resulting colored residue was dissolved in 200 μL of Tris base (10 mM), and the optical density read for each well at 540 nm using a Bio-Rad microplate reader (model 2550). […]
Cell monolayers were continuously exposed to different concentrations of each drug for 72 h. Under short exposure, they were treated with each drug for 2 h and allowed to recover for 72 h in drug-free medium.
To study the reversibility of the antiproliferative effects of our compounds, cells were grown to 70% confluence in 96-well plates and subsequently washed twice with PBS, after which they were exposed to serum-free medium for 18 h. Under continuous exposure, the cells were exposed to different concentrations of each drug for 120 h. Under short exposure, they were exposed to each drug for 2 h, after which they were allowed to recover for 120 h in drug free medium. Growth inhibitory activities were evaluated using the SRB assay as described above.

EGFR [2] = target: T2, EGFR (Homo sapiens, UniProt P00533); experiment: Reverse EGFR autophosphorylation (reversibility) assay in A431 cells; type: cell-based; conditions: A431, 30 μM
T2 sequence (P00533 25-1210): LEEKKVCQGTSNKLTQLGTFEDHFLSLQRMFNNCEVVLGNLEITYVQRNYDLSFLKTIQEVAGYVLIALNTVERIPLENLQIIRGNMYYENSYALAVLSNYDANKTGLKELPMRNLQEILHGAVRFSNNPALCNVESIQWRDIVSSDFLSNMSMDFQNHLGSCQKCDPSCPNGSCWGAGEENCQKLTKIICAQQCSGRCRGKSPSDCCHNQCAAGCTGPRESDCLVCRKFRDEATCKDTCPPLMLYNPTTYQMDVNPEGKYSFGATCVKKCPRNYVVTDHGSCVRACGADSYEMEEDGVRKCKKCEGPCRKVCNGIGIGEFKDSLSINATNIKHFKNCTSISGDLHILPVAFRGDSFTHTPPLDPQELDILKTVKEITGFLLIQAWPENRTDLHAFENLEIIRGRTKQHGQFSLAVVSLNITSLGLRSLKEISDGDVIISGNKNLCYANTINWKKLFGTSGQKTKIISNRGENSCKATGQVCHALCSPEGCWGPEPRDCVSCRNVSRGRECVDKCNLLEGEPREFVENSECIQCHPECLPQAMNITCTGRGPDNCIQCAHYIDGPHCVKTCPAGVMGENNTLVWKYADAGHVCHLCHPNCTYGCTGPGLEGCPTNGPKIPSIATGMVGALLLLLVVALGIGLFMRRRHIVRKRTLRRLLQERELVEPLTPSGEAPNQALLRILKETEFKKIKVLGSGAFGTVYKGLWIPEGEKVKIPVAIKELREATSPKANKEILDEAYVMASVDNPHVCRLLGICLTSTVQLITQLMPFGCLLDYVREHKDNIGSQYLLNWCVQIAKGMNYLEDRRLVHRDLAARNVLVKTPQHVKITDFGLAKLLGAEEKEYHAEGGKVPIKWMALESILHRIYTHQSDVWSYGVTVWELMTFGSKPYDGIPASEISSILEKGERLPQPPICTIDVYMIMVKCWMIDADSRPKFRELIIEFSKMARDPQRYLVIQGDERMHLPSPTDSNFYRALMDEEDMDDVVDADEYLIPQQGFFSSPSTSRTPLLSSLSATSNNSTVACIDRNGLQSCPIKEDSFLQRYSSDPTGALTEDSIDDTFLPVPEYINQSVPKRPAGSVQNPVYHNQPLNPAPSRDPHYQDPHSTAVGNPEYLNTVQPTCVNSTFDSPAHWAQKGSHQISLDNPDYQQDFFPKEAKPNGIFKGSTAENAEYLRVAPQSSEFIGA
Method: To test this hypothesis, the reversibility assay (40, 41) was used, according to which the cells are treated with the drug for 90 min after which the culture medium is repeatedly removed and replaced 3 times, followed by the measurement of EGFR autophosphorylation.
A431 cells were grown to confluence in 6-well plates and then incubated in serum-free medium for 18 h (41). Duplicate sets of cells were then treated with 30 μM of each compound for 90 min. One set of cells was then stimulated with EGF (100 ng/ml) for 10 min and extracts were made as described under the Western blotting procedure above. The other set of cells was washed free of each compound with warmed serum-free media and incubated for 2 h. Thereafter, the cells were washed, incubated for another 2 h, washed again, and then incubated for a further 4 h. This set of cells was then stimulated with EGF and extracts were prepared as for the first set.

EGFR [3] = target: T2, EGFR; experiment: EGFR TK ELISA with PGT substrate (competitive binding at the ATP site); type: biochemical; design: purchased BIOMOL (Plymouth Meeting); also a gift from Pfizer Inc
Method: The ability of the combi-molecules to block EGFR TK activity was determined by an ELISA assay using poly(L-glutamic acid-L-tyrosine, 4:1) PGT as a substrate and commercially available EGFR.
Nunc MaxiSorp 96-well plates were incubated overnight at 37° C. with 100μL per well of 0.25 mg/mL PGT in PBS. Excess PGT was removed and the plates were washed 3 times with Tween 20 (0.1%) in PBS. […] The compound was added and phosphorylation initiated by the addition of ATP (20 μM). After 8 min at room temperature with constant shaking, the reaction was terminated by the aspiration of the reaction mixture and by rinsing the plate 4 times with wash buffer (Tween 20 (0.1%) in PBS). […] Antibody was removed by aspiration, and the plates washed 4 times with wash buffer. The signals were developed by the addition of 50 μL per well of TMB peroxidase substrate (Kierkegaard and Perry Laboratories, Gaithersberg, Md.).
This assay is similar to the one previously described. Nunc MaxiSorp 96-well plates were incubated overnight at 37° C. with 100 μl/well of 25 ng/ml PGT in PBS. Excess PGT was removed and the plates were washed three times with wash buffer (Tween 20 (0.1%) in PBS). […] The compound was added and phosphorylation initiated by the addition of ATP (20 μM). After 8 min at room temperature with constant shaking, the reaction was terminated by aspirating the mixture and by rinsing the plates four times with wash buffer Tween 20 (0.1%) in PBS. […] Antibody was removed by aspiration, and the plate washed four times with wash buffer. The signals were developed by the addition of 50 μl/well of 3,3′,5,5′-tetramethylbenzidine (TMB) peroxidase substrate (Kierkegaard and Perry Laboratories, Gaithersberg, Md., USA).

[4] = test system: NIH3T3 and NIH3T3HER14 cells; experiment: Alkaline comet assay in isogenic pair NIH3T3 / NIH3T3HER14; type: cell-based, mouse; conditions: NIH3T3HER14 versus NIH3T3, 30 min
Method: The alkaline comet assay was performed as previously described (26). […] Cell suspensions were diluted to approximately 10^6 cells, and mixed with agarose (1%) in PBS at 37° C. in a 1:10 dilution. The gels were cast on Gelbond strips (Mandel Scientific, Guelph, Canada) using gel casting chambers, as previously described (31), and then immediately placed in a lysis buffer [2.5 M NaCl, 0.1 M tetra-sodium EDTA, 10 mM Tris-base, 1% (w/v) N-lauryl sarcosine, 10% (v/v) DMSO, and 1% (v/v) Triton X-100, pH 10.0]. After being kept on ice for 30 min, the gels were gently rinsed with distilled water and immersed in a second lysis buffer (2.5 M NaCl, 0.1 M tetrasodium EDTA, 10 mM Tris-base) containing 1 mg/ml proteinase K for 60 min at 37° C. Thereafter, the gels were rinsed with distilled water, incubated in alkaline electrophoresis buffer for 30 min at 37° C., and electrophoresed at 300 mA for 60 min. […] Comets were visualized at 330× magnification and DNA damage was quantitated using the Tail Moment parameter (i.e., the distance between the barycenter of the head and the tail of the comet multiplied by the percentage of DNA within the tail of the comet). A minimum of 50 cell comets were analyzed for each sample, using ALKOMET version 3.1 image analysis software, and values are averages of tail moments for the entire cell population per sample.

EGFR [5] = target: T2, EGFR; experiment: EGF-induced EGFR autophosphorylation in A431 cells (Western blot)
Method: The inhibition of receptor autophosphorylation in viable cells was determined by anti-phosphotyrosine Western Blots. A431 cells were pre-incubated overnight for 24 h at 37° C. in a 6-well plate (1×10^6) with 0.1% serum, after which they were exposed to a range of doses for each drug for 2 h and subsequently treated with 50 ng/mL EGF for 30 min at 37° C. The cells were thereafter washed with PBS and re-suspended in cold lysis buffer [50 mM Tris-HCl pH 7.5; 150 mM NaCl; 1% NP40, 1 mM EDTA; 5 mM NaF; 1 mM Na3VO4; protease inhibitor tablet (Roche Biochemicals, Laval, Canada)]. The lysates were kept on ice for 30 min and collected by centrifugation at 10 000 rpm for 20 min at 4° C. The protein concentrations were determined against a standardized control using the Bio-Rad protein assay kit (Bio-Rad Laboratories, Hercules, Calif.). […] Non-specific binding on the PVDF membrane was minimized with a blocking buffer containing nonfat dry milk (3%) in PBS. The membrane was blotted with primary antibodies [either antiphosphotyrosine antibody (UBI, Lake Placid, N.Y.) for the detection of phosphotyrosine, or anti-EGFR (Neomarkers, Fremont, Calif.) for the determination of corresponding receptor levels], and anti-β-tubulin (Neomarkers, Fremont, Calif.) for the detection of equal loading. Thereafter, blots were incubated with HRP-goat anti-mouse antibody (1:200 dilution; Bio-Rad Laboratories, Hercules, Calif.) and the bands visualized with an enhanced chemiluminescence system (Amersham Pharmacia Biotech, Buckinghamshire, UK). Band intensities were measured using the SynGene GeneTools software package (Cambridge, UK).
The inhibition of receptor autophosphorylation in viable cells was determined by anti-phosphotyrosine Western Blots. […] Protein concentrations were determined against a standardized control using the Bio-Rad protein assay kit (Bio-Rad Laboratories, Hercules, Calif.). […] Band intensities were measured using the SynGene GeneTools software package (Cambridge, UK).

MAPK = experiment: EGF-induced MAPK phosphorylation in A431 cells (Western blot); type: cell-based, human; conditions: A431, at concentrations as low as 1 μM
Method: For the inhibition study of mitogen-activated protein kinase (MAPK) activation by BJ2000, protein lysates were obtained as described above and a Western blot was performed (39). The membrane was incubated with anti-phosphorylated MAPK antibodies or antibodies specific for MAPK (Cell Signaling, Beverly, Mass., USA).

[6] = target: T3, HER2 (erbB2) gene product p185neu (Homo sapiens, UniProt P04626); experiment: Heregulin-stimulated phosphorylation of p185neu in MDA-MB453 cells; type: cell-based
T3 construct: heregulin (HRG)-stimulated phosphorylation of the HER2 (erbB2) gene product; endogenous in cells
T3 sequence (P04626 23-1255): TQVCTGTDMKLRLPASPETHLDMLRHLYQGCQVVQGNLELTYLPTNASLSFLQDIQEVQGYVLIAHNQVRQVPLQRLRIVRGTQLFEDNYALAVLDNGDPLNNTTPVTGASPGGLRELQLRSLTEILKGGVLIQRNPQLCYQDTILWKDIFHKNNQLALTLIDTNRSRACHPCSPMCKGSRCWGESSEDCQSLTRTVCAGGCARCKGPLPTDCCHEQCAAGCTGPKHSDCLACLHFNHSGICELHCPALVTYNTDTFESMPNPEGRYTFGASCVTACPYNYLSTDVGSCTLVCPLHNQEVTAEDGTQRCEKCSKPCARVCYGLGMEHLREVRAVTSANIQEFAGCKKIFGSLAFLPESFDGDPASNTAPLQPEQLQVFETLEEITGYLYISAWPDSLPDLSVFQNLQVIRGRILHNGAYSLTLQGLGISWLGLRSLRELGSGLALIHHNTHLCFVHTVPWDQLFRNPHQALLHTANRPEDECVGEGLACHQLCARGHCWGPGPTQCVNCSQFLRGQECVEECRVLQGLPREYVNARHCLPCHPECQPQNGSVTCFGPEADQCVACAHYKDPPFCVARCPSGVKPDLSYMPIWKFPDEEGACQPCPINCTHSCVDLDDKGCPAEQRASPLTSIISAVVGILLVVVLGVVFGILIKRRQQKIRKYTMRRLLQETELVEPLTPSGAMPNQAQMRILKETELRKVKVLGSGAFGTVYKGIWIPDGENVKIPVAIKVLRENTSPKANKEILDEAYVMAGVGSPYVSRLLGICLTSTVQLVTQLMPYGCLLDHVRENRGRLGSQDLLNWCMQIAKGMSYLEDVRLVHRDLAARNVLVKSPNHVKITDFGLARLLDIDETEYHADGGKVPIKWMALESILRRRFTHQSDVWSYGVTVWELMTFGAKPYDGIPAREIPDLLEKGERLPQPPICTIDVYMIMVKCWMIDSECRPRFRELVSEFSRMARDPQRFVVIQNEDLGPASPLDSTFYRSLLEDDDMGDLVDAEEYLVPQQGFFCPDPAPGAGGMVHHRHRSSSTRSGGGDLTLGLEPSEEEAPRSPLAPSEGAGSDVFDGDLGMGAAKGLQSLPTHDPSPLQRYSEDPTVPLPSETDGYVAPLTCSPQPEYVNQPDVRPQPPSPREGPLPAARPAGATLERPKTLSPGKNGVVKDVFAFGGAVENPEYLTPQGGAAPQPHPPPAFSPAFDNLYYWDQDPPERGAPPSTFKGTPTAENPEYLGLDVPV

PDGFR = experiment: PDGF-induced PDGFR autophosphorylation in NIH3T3 cells (Western blot); type: cell-based, mouse; conditions: concentrations as high as 30 μM
Method: The inhibition of receptor autophosphorylation in viable cells was determined by anti-phosphotyrosine Western Blots. A431 and NIH3T3 cells were grown to confluence in 6-well plates, washed twice with PBS and exposed to serum-free medium for 18 h. They were subsequently treated with the compounds for 90 min and then with EGF (100 ng/ml) for 10 min (A431 cells), or with PDGF (100 ng/ml) for 10 min (NIH3T3 cells). They were thereafter washed with PBS and re-suspended in cold lysis buffer [50 mM Tris-HCl pH 7.5; 150 mM NaCl; 1% Nonidet P-40, 1 mM EDTA; 5 mM NaF; 1 mM Na3VO4; protease inhibitor tablet (Roche Biochemicals, Laval, Canada)]. The lysates were kept on ice for 30 min and collected by centrifugation at 10,000 rpm for 20 min at 4° C. Protein concentrations were determined against a standardized control using the Bio-Rad protein assay kit (Bio-Rad Laboratories, Hercules, Calif.). Equal amounts of protein (40 μg/mL) from each cell lysate were added to an 8% SDS-polyacrylamide gel electrophoresis (SDS-PAGE) and transferred to a polyvinylidene difluoride membrane (PVDF) (Millipore, Bedford, Mass.). Non-specific binding on the membrane was minimized with a blocking buffer containing non-fat dry milk (3%) in PBS. […] Band intensities were measured using the SynGene GeneTools software package (Cambridge, UK).

human c-src = target: T4, human c-src (Homo sapiens, UniProt P12931); experiment: c-src kinase ELISA; type: biochemical; conditions: 1-100 μM range
T4 construct: purchased Upstate NY; host or cells: Baculovirus expression
T4 sequence (P12931 whole entry): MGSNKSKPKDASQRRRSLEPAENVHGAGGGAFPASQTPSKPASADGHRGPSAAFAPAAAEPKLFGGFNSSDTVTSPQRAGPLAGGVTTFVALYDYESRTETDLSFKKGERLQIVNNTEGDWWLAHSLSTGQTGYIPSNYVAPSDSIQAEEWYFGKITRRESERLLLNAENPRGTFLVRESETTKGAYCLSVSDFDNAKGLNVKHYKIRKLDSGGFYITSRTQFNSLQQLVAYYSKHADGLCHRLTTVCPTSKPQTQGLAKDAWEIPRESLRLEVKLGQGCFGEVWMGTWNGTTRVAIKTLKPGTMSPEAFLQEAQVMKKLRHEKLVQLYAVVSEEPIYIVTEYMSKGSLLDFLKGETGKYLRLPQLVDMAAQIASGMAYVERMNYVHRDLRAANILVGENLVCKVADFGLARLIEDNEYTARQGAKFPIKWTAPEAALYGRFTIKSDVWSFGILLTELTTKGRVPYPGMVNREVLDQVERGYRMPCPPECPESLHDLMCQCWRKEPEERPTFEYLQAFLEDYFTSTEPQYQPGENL
Method: as §1

SMILES: CNN=Nc1ccc2ncnc(Nc3cccc(Cl)c3)c2c1 [BJ2000]
- effect on insulin receptor TK [1]: nor did it exert any effect on insulin receptor TK
- fold more potent than metabolite FD105 (A431 cells; 120 h continuous, SRB, A431): ≈ 3 fold
- IC50 (A431 cells; A-431, 120 h, read-out: IC50 growth inhibition): 15 µM
- IC50 (A431 cells; A-431, read-out: IC50 growth inhibition): 38 µM
- EGF-dependent EGFR autophosphorylation immediately after drug exposure (EGFR [2]; 90 min): completely suppressed
- EGFR autophosphorylation activity restored (EGFR [2]; 8 h post-treatment in drug-free medium after repeated washouts): 40%
- fold stronger affinity than SMA41 (EGFR [3]): 2 fold
- IC50 (EGFR [3]; ELISA, PGT substrate, purified EGFR, ATP 20 μM, 8 min, read-out: IC50, inhibition of EGFR TK (competitive binding at ATP site)): 0.1 µM
- fold greater EGFR binding affinity than metabolite FD105 (EGFR [3]; purified EGFR, ATP site): 2 fold
- fold higher levels of DNA damage in the EGFR transfectant [4]: more than 2 fold
- IC50 (EGFR [5]): ~6 µM
- inhibition of EGF-induced MAPK phosphorylation (MAPK): complete inhibition; also recorded: block MAPK phosphorylation
- effect on heregulin (HRG)-stimulated phosphorylation of p185neu [6]: able to block
- effect on PDGF-induced PDGFR autophosphorylation (PDGFR): no effect
- effect on c-src TK activity (human c-src): did not block c-src TK activity
